Here are results for one molecule from EP1228052B1, “1-CYCLIC AMINO-ALKYLCYCLOHEXANE COMPOUNDS, PHARMACEUTICAL COMPOSITIONS THEREOF, AND THEIR USE AS ANTICONVULSANTS” (Merz Pharma GmbH & Co. KGaA, priority 1999, dated 2001).

The test system of data set [1] is traction reflex (Tract.) impairment. Nature of the data set: Traction reflex impairment (for therapeutic index). It counts as in vivo. To be noted: therapeutic index: ED50 for traction reflex impairment divided by ED50 for MES-induced convulsions. The procedure:
(§1) Effect of MRZ 2/705 on convulsions induced by maximal electroshock (MES). […] The therapeutic index (TI) was also calculated as the ED50 for inhibition of traction reflex (Tract.) impairment or rotarod failure (Rot.) divided by the ED50 for MES-induced seizure-induced convulsions.

A further data set deals with [^3H]-(+)-MK-801 binding. Nature of the data set: [3H]-(+)-MK-801 binding. Particulars: read-out: MK-801 Ki; means of 3-5 experiments; Cheng-Prusoff, Kd for MK-801 of […]. The procedure:
(§2) Effect of MRZ 2/705 on [^3H]-(+)-MK-801 binding, NMDA-induced currents in patch clamp experiments, and glutamate toxicity in cultured cortical neurones. […] IC50s (±SEM) in patch clamp and glutamate toxicity experiments were determined from data from at least 3 concentrations producing between 15 and 85% inhibition and at least 5 cells/well per concentration.

Another data set concerns amygdala kindled rats. The data set can be described thus: Amygdala kindling model in fully kindled rats. It is filed as in vivo, Female Wistar rats. The procedure:
The substance MRZ 2/705 was tested in the amygdala kindling model in rats. In this model chronically implanted animals with stimulation and recording electrodes in the amygdala were rendered more susceptible to seizures by repeated initially subconvulsive electrical stimulation (Goddard et al., 1969, Sato el. al, 1990). Once enhanced sensitivity, characterized by generalized motor seizures, has developed, the animal is said to be fully kindled. For substance screening procedures we determine the individual threshold current that induces afterdischarges at the stimulation site.
Female Wistar rats were purchased at a body weight of 200-220g (Harlan Windelmann Versuchstierzucht, Borchen, Germany) and were then kept under controlled environmental conditions (24-25°C, 50-60% humidity, 12h light / dark cycle) with free access to standard laboratory chow (Altromin 1324 standard diet) and tap water. All experiments were performed within the same day time in the morning to minimize possible effects of circadian variation. […] These animals were previously kindled and used to test other compounds. The period between the previous and current studies was long enough (at least one month) so that it was ample time for a complete washout from the previously tested drug.
For implantation of kindling electrodes, rats were anaesthetized with chloral hydrate (360 mg/kg, i/p.), the skull surface was exposed, and a bipolar electrode was implanted into the right hemisphere aimed at the basolateral amygdala using the following sterotaxic coordinates according to the atlas of Paximos and Watson (1986): 2.2 mm caudal, 4.8 mm lateral, 8.5 mm ventral (all respective to bregma). The electrodes consisted of two twisted Teflon-coated stainless steel wires (250 µm diameter) separated by 0.5 mm at the tip. A screw, which served as grounding electrode, was positioned over the left parietal cortex. Bipolar and ground electrodes were connected to plugs, and the electrode assembly and anchor screws were held in place with dental carylic cement applied to the exposed skull surface. After surgery, the rats were treated with antibiotics for 1 week to prevent infection.
Following a post-operative recovery period of two weeks, constant current stimulations (500µA, 1 msec, monophasic square-wave pulses, 50 Hz for 1 s) were delivered to the amygdala once daily (five times per week) until at least 10 sequential fully kindled stage-5 seizures were elicited. Seizure severity (SS) was scored according to Racine (1972): 1 immobility, eye closure, ear twitching, twitching of vibrissae, sniffing, facial clonus; 2 head nodding associated with more severe facial clonus; 3 clonus of one forelimb; 3.5 bilateral clonus without rearing; 4 bilateral clonus accompanied by rearing; 4.5 generalized clonic seizures without rearing and falling (e.g. because of direct loss of balance); 5 rearing and falling accompanied by generalized clonic seizures. In these fully kindled rats afterdischarge threshold (ADT) was determined by administering a series of stimulations at intervals of 1 min. increasing in steps of about 20% of the previously applied current. The afterdischarge threshold was defined as the lowest current intensity producing afterdischarge with a duration of at least 5 s.
In all experiments seizure duration and afterdischarge duration were recorded in addition to seizure severity and afterdischarge threshold. Seizure duration 1 (SD1) was the time period of limbic and/or motor seizures. Limbic seizure activity which sometimes occurred after termination of secondarily generalized seizures was not included in seizure duration. Seizure duration 2 (SD2) was the time period from stimulation until the end of postictal depression phase.
Afterdischarge duration 1 (ADD1) was defined as the period of high amplitude spiking (at least 1 Hz frequency and twice the prestimulation amplitude) in the electroencephalogram (EEG) of the BLA electrode, including the time of stimulation. […]

Data set [2] concerns cultured cortical neurones. Nature of the data set: Glutamate toxicity in cultured cortical neurones. It counts as cell-based. To be noted: Cortical neurone, read-out: Glut Tox IC50. The procedure: as §2
The next data set concerns NMDA-induced currents. The data set can be described thus: NMDA-induced currents in patch clamp experiments. It is filed as cell-based. Particulars: at least 3 concentrations, at least 5 cells per concentration. On the procedure:
as §2

Data set [3] can be described thus: Adverse effects in kindled rats (sedation, ataxia, rotarod test). It is filed as in vivo, Female Wistar rats. On the procedure:
The substance MRZ 2/705 was dissolved in distilled water and administered i.p. Thereby applicated volume was 3 ml/kg body weight. dosages used in the experiments were 5, 10, and 20 mg/kg.
Animals were allowed to adapt to the laboratory environment, then body temperature was measured and animals were put into open cages for constant observation. 15 and 30 minutes following drug or vehicle administration behavioral alterations and body temperature were determined. Adverse effects were scored during observation in open cages and in an open field. In addition, rats were subjected to the rotarod test (polypropylene, foam-coated rod, 5cm in diameter, 8rpm). Animals were considered to have failed this test, when they fell from the rod in each of three consecutive 1-min. attempts.

A further data set concerns rotarod failure (Rot.). The data set can be described thus: Rotarod failure (for therapeutic index). It is filed as in vivo. Particulars: therapeutic index: ED50 for rotarod failure divided by ED50 for MES-induced convulsions. On the procedure: as §1
A general note: In the rotarod test animals must keep their balance on a rotating rod.

Data set [4] relates to convulsions induced by maximal electroshock (MES). The data set can be described thus: Convulsions induced by maximal electroshock (MES). It is filed as in vivo. Particulars: ip; 95% confidence limits in the next column. On the procedure:
as §1
A general note: Protection in the maximal electroshock model is a classic sign of anticonvulsant action.

[5] abbreviates: 20 mg/kg i.p., in a significant manner.

One may read the Ki as the equilibrium dissociation constant of an inhibitor or competing ligand from its target. One may read the IC50 as the midpoint of a concentration-inhibition curve. The term ED50 denotes the dose at which the effect has come halfway, by size or by number of responders. Higher therefore signals weaker potency. For `CC1(C)CC(C)(C)CC(C)(N2CCCC2)C1.Cl` [MRZ 2/705, N-(1,3,3,5,5-Pentamethylcyclohexyl) pyrrolidine hydrochloride], the “TI Tract” value in data set [1] was determined as 3.9. Also, in data set [^3H]-(+)-MK-801 binding, the inhibition constant (Ki) turned out to be 7.14 µM. Moreover, the “average increase in afterdischarge threshold above control threshold” value in the data set with amygdala kindled rats (5 mg/kg i.p.) stood at 36%; in the data set on amygdala kindled rats (10 mg/kg i.p., significant) it was 50%; in the data set with amygdala kindled rats (20 mg/kg i.p., significant) it was 95%. Besides, the duration of afterdischarges result with amygdala kindled rats (setting [5]) is reported as “reduced”. For the same molecule, the “duration of motor seizures” value in the data set with amygdala kindled rats (setting [5]) is reported as “reduced”. Further, the seizure severity result in the data set with amygdala kindled rats (setting [5]) is listed as “reduced”. Further, the “seizure parameters (seizure severity, duration of motor seizures, duration of afterdischarges)” value in the data set on amygdala kindled rats (lower dosages (5 and 10 mg/kg i.p.)) is given as “remained unchanged or were only influenced slightly”. The “Min I.ct-hality” value in “Minimal lethality i.p.” is reported as >50 mg/kg. In addition, the IC50 in data set [2] stood at 12.3 µM; with NMDA-induced currents it was 25.4 µM. Further, the rotarod test result in data set [3] (5, 10, 20 mg/kg i.p., 8 rpm, three consecutive 1-min attempts) was “no failure to pass the rotarod test was observed”. In [3] (10 and 20 mg/kg i.p.), the ataxia entry is reported as “Slight ataxia”. In data set [3] (all three dosages (5, 10, 20 mg/kg i.p.)), the sedation result is reported as “minor signs of sedation”. Also, the “TI Rot.” value with rotarod failure (Rot.) is recorded as 5.4. The same molecule registered a 50% effective dose (ED50) in [4] of 9.55 mg/kg.
